# Measured values published in patent US20250367160A1, “USE OF GUAIJAVERIN IN PREPARATION OF EYE PROTECTION PRODUCT” (Innovation Center of Yangtze River Delta, ZJU, priority 2024, published 2025).
# Columns and labels:
# [1] = system: human primary retinal Müller cells; test: Optical stress (strong white light) model of human primary retinal Müller cells, AlamarBlue cell viability; type: cell-based; details: pre-incubation 24 h, 32k Lux strong light 4 h
# Experimental: The human primary Müller cells in a logarithmic growth phase were inoculated at a density of 5,000 cells/well in a 96-well plate and cultured in a 37° C., 5% CO2 incubator for 24 h. The medium was removed by aspirating, and 6 replicate wells were set up for guaijaverin groups. 100 μL of the guaijaverin solution dissolved in DMSO solvent in advance was further diluted in DMEM and added into each well, at final concentrations of 10 μM and 30 μM, respectively. The control group was added with 100 μL of DMEM solution. A laboratory-made strong light irradiation system was used to model optical stress on human retinal primary Müller cells cultured in vitro. A strong light irradiation group was irradiated with 32k Lux of strong light for 4 h, while a weak light irradiation group was irradiated with 5k Lux of weak light for 4 h. Then, the cell viability was detected using the AlamarBlue kit.
# After the cells were stressed by light, the AlamarBlue kit was used to detect cell viability. The cell culture supernatant was discarded, and the cells were washed twice with 100 μL of PBS. 100 μL of AlamarBlue reagent diluted 1:10 with DMEM solution was added, and the cells were incubated in a 37° C., 5% CO2 incubator for 4 h. The fluorescence of each well was read using a microplate reader at an excitation wavelength of 544 nm and an emission wavelength of 590 nm. 2.
# [2] = system: ocular apoptotic cells of the zebrafish; test: Anti-blue light eye protection efficacy, AO staining of ocular apoptotic cells in zebrafish blue light eye damage model; type: in vivo; details: for Fluorescence intensity of ocular apoptotic cells (pixel, mean ± SE): aqueous, 28° C., 1 d, n = 10, model group 45833 ± 4825, normal control 12203 ± 1124
# Experimental: Wild-type AB zebrafish at 1 dpf were randomly selected and irradiated with blue light after membrane rupture to establish the zebrafish blue light eye damage model. Model zebrafish with desirable development status were selected at 3 dpf and randomly distributed in 6-well plates, with 30 zebrafish in each well (experimental group) were treated. Different concentrations of guaijaverin (see Table 2 for concentrations) were administered aqueously, and lutein at a concentration of 62.5 μg/mL were used as a positive control, while a normal control group and a model group were also set up, with a volume of 3 mL per well. After 1 d of treatment at 28° C., the zebrafish in each experimental group were stained with AO in the dark for 30 min and washed 3 times with standard dilution water. 10 zebrafish were randomly selected from each experimental group and photographed under a fluorescence microscope. The data were analyzed and collected using Image J software. The fluorescence intensity of ocular apoptotic cells of the zebrafish was statistically analyzed. The anti-blue light eye protection efficacy of guaijaverin was evaluated based on the statistical analysis results of the above indicators. The statistical result was expressed as mean±SE.
# [3] = system: mouse retinal apoptotic cells; test: Mouse retinal optical damage model, TUNEL staining of retinal apoptotic cells; type: in vivo, BALB/c mice; details: for retinal cell apoptosis caused by light (TUNEL): gavage once a day 10 days, vs model group, FIG. 6
# Experimental: (§1) A self-made light box with a length of 108 cm, a width of 50 cm, and a height of 72 cm was used, and the light intensity was measured by a light meter to be 8,500-10,000 Lux. After eye examination, 60 mice with normal eyeballs were selected and randomly divided into a control group, a model group, a lutein group (100 mg/kg), a guaijaverin low-dose group (50 mg/kg), and a guaijaverin high-dose group (100 mg/kg), with 12 mice in each group. Lutein and guaijaverin were suspended in 5% sodium carboxymethylcellulose (CMC-Na) solution and administered by gavage once a day. The mice in the control and model groups were administered by gavage with an equal volume of 5% CMC-Na for 10 consecutive days. 10 days later, the mice in the model group, lutein group, guaijaverin low-dose group, and guaijaverin high-dose group were kept in the dark for 36 h, atropine eye gel was applied to both eyes of the mice to induce pupil dilation, and the mice were placed in the self-made lighting device of 8,000-10,000 Lux (the control group was raised in a normal environment) and given continuous light for 24 h. After the light exposure, the mice in each group had their eyeballs removed to draw blood and eyeball tissue collected for subsequent experimental tests.
# Eyeball tissues of 6 mice were collected from each group for Hematoxylin-eosin staining (H&E) and TUNEL fluorescence staining of apoptotic cells, and the pathological changes of mouse eyeball tissues were observed using an optical microscope (completed by Wuhan Servicebio Biotechnology Co., Ltd.).
# a) Dewaxing the paraffin sections to water: the sections were sequentially placed into environmental-friendly dewaxing solution I for 10 min, environmental-friendly dewaxing solution II for 10 min, environmental-friendly dewaxing solution III for 10 min, anhydrous ethanol I for 5 min, anhydrous ethanol II for 5 min, anhydrous ethanol III for 5 min and washed with distilled water.
# b) Proteinase K repair: after the sections were slightly dried, a tissue pen was used to draw a circle around the tissue (to prevent the liquid from flowing away), a proteinase K working solution was added in the circle to cover the tissue, and incubated in a 37° C. incubator for 20 min. The slides were placed in PBS (PH=7.4) and washed 3 times on a decolorizing shaker, each time for 5 min. (Preparation method of proteinase K working solution, stock solution:PBS=1:9). […]
# g) Sealing: the slides were placed in PBS (PH7.4) and washed on a decolorizing shaker for 3 times, 5 min each time. The sections were slightly spin-dried and mounted with anti-fluorescence fading mounting medium. […]
# IL-6 = test: Mouse retinal optical damage model, plasma IL-6 level; type: in vivo, BALB/c mice; details: gavage once a day 10 days, vs model group, FIG. 8
# Experimental: as §1, with “After the light exposure, the mice in each group had their eyeballs removed to draw blood and eyeball tissue collected for subsequent experimental tests.” left out
# The mouse blood was collected in an anticoagulant tube and centrifuged at 3,000 rpm for 10 min at 4° C. to collect the upper plasma. The IL-6 content was determined according to the method provided by the kit manufacturer.
compound,measurement,setting,value
"O=c1c(O[C@@H]2OC[C@H](O)[C@H](O)[C@H]2O)c(-c2ccc(O)c(O)c2)oc2cc(O)cc(O)c12 [Guaijaverin, guaijaverin]",viability of Müller cells after strong light irradiation,"[1]; 10 μM, FIG. 1",significantly restored
same,viability of Müller cells after strong light irradiation,"[1]; 30 μM, FIG. 2",restored to the level under weak light irradiation conditions
same,"Fluorescence intensity of ocular apoptotic cells (pixel, mean ± SE)",[2]; 62.5 μg/mL,31471 ± 2353 pixel
same,eye protection effect against blue optical damage compared with lutein,[2]; 125 μg/mL vs lutein 62.5 μg/mL,same significant eye protection effect as lutein
same,"Fluorescence intensity of ocular apoptotic cells (pixel, mean ± SE)",[2]; 125 μg/mL,24765 ± 2077 pixel
same,eye protection effect against blue optical damage compared with lutein,[2]; 150 μg/mL vs lutein 62.5 μg/mL,more significant eye protection effect than lutein
same,"Fluorescence intensity of ocular apoptotic cells (pixel, mean ± SE)",[2]; 150 μg/mL,18149 ± 1688 pixel
same,protective effect on retinal cell apoptosis compared with lutein (TUNEL),[3]; high-dose 100 mg/kg vs lutein 100 mg/kg,better protective effect than lutein
same,retinal cell apoptosis caused by light (TUNEL),[3]; high-dose 100 mg/kg,effectively improve retinal cell apoptosis caused by light
same,protective effect on retinal cell apoptosis compared with lutein (TUNEL),[3]; low-dose 50 mg/kg vs lutein 100 mg/kg,comparable to that of the positive control lutein
same,retinal cell apoptosis caused by light (TUNEL),[3]; low-dose 50 mg/kg,effectively improve retinal cell apoptosis caused by light
same,plasma level of IL-6,IL-6; high-dose 100 mg/kg,significantly reduce the level of IL-6
same,plasma level of IL-6,IL-6; low-dose 50 mg/kg,significantly reduce the level of IL-6
